According to US8956824B2, “Methods for identifying allosteric modulators of ship polypeptides” (British Columbia Cancer Agency Branch, priority 2006, dated 2015):
Entries after “also recorded” stand apart in the source; their conditions may differ.

What was measured:
[1] = test system: SHIP1+/+ and SHIP1−/− BMMCs; experiment: Intracellular signaling after FcεR1 crosslinking in BMMCs (immunoblot); assay type: cell-based, mouse; conditions: 10 μg/ml, 30 min; 20 ng/ml DNP-HSA 5 min
Procedure: Stimulation of BMMCs by FcεR1 crosslinking. SHIP1+/+ and SHIP1−/− BMMCs were pre-loaded overnight in BMMC medium lacking IL-3 with 0.1 μg/ml anti-DNP IgE (SPE-7, Sigma, Oakville, Ont). For calcium flux measurements, the cells were incubated with 2 μM fura 2-acetoxymethyl ester (Molecular Probes, Eugene, Oreg.) in Tyrode's buffer at 23° C. for 45 min. The cells were then washed and incubated in the presence of vehicle control, LY294002 or AQX-016A 30 min prior to stimulation with the indicated concentration of DNP-human serum albumin (DNP-HSA). Calcium influx was then monitored by spectrofluorometry as described previously (19). Experiments were repeated at least 3 times. For analysis of intracellular signaling, cells were pre-loaded with anti-DNP IgE as above, pre-treated with AQX-016A or buffer control for 30 min at 37° C. and stimulated with 20 ng/ml DNP-HSA for 5 min. Total cell lysates were then prepared and analyzed for phospho-PKB, phospho-p38MAPK, phospho-MAPK, Grb-2 (Cell Signalling, Mississauga, Ont) and SHIP1 (18) by immunoblot analysis as described previously (20). Results are representative of 3 independent experiments.

SHIP2 enzyme = target: T1, SHIP2 enzyme (Homo sapiens, UniProt O15357); experiment: In vitro SHIP enzyme assay, SHIP2; assay type: biochemical; conditions: FIG. 1B
T1 construct: purchased Echelon Biosciences (Salt Lake City, Utah)
T1 sequence (O15357 1-1258): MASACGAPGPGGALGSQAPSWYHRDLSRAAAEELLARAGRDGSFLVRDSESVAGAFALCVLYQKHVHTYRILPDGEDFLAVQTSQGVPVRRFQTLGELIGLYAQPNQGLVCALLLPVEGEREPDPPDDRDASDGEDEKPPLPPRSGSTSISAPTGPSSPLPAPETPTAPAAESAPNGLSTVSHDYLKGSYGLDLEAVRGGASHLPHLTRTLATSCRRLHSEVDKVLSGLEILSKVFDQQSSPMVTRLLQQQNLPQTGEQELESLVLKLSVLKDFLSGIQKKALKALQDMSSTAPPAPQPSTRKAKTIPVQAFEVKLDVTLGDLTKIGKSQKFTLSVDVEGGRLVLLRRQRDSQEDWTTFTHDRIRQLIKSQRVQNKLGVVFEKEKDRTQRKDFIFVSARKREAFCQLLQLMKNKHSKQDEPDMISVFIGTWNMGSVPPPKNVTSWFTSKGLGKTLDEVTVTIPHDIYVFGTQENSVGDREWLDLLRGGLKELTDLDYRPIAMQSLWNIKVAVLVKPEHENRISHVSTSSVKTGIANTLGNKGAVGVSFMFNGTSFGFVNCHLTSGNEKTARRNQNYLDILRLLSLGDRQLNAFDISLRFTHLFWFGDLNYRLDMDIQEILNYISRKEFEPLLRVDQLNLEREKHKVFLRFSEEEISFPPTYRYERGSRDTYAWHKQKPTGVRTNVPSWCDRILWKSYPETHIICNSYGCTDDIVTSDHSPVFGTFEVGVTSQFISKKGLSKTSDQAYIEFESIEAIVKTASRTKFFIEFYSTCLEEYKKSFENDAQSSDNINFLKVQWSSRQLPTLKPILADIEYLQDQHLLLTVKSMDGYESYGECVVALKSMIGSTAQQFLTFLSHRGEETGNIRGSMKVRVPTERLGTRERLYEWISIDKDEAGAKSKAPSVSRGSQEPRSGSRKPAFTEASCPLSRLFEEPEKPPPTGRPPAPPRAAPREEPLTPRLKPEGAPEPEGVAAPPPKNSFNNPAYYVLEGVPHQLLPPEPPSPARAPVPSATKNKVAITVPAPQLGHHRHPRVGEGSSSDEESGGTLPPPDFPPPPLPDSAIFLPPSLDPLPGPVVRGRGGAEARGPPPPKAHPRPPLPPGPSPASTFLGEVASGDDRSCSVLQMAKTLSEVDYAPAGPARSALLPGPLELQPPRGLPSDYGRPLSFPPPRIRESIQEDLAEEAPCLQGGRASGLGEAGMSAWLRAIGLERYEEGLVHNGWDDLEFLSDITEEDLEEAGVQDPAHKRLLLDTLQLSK
Procedure: In vitro SHIP enzyme assay. The SHIP enzyme assay was performed in 96-well microtitre plates with 10 ng of enzyme/well in a total volume of 25 μL of 20 mM Tris HCl, pH 7.5 and 10 mM MgCl2. SHIP1 enzyme was incubated with test extracts (provided in DMSO) or vehicle for 15 mM at 23° C. before the addition of 100 μM inositol-1,3,4,5-tetrakisphosphate (Echelon Biosciences Inc, Salt Lake City, Utah). The reaction was allowed to proceed for 20 min at 37° C. and the amount of inorganic phosphate released assessed by the addition of Malachite Green reagent followed by an absorbance measurement at 650 nm (15). SHIP2 enzyme was purchased from Echelon Biosciences (Salt Lake City, Utah) and an equivalent amount of inositol phosphatase activity was used in the in vitro enzyme assay. Enzyme data are expressed as the mean of triplicates+/−SEM. Experiments were performed at least 3 times.

[2] = test system: 100 protein kinase and phosphatase targets; experiment: In vitro kinase/phosphatase screen; assay type: biochemical; conditions: 2 μM final concentration; changes <25% not considered significant
Procedure: Protein kinase assays were performed at 30° C. for 15 min in a final volume of 25 μL. The assay was initiated by the addition of [32P]-ATP and the reaction mixture incubated at 30° C. for 15 minutes. After the 15 minute incubation period, the assay was terminated by spotting 20 μl of the reaction mixture onto phosphocellulose P81 plate. The phosphocellulose P81 plate was washed 3 times for approximately 15 minutes each in a 1% phosphoric acid solution. The radioactivity on the P81 plate was counted in the presence of scintillation fluid in a scintillation counter. Protein phosphatase activities were determined using pNPP as substrate. Assays were performed at 37° C. for 15 min in a […]. The assay was started by incubating the reaction mixture at 37° C. for 15 minutes. After the 15 minutes incubation period, the assay was terminated by the addition of 25 μl of 2N NaOH stopping solution. The absorbance of the reaction solution was measured in a spectrophotometer at 410 nm. The activity of the enzymes in the presence of AQX-MN100 was compared to that in the vehicle control and expressed as a % change in activity relative to that observed in the vehicle control. Changes in activity of <25% were not considered significant. _

SMILES | phosphorylation of PKB, p38MAPK and ERK, SHIP1+/+ vs SHIP1−/− BMMCs [1] | activation of SHIP1 versus SHIP2 (SHIP2 enzyme) | activity on a panel of 100 kinases and phosphatases [2]
Cc1cc(O)c(O)c2c1[C@]1(C)CC[C@H]3C(C)(C)CCC[C@]3(C)[C@H]1C2 [AQX-016A] | inhibited the phosphorylation of PKB, p38MAPK and ERK in SHIP1+/+ but not in SHIP1−/− | preferentially activates SHIP1 over SHIP2 | –
Cc1cc(O)cc2c1[C@]1(C)CC[C@H]3C(C)(C)CCC[C@]3(C)[C@H]1C2 [AQX-MN100] | – | – | very little activity; also recorded: selectively enhances SHIP enzyme activity
